The record followed here is paper PMC9719791 (Science translational medicine, 2021).

pIC50: −log10 of the molar value.

This assay addresses SUMO activating enzyme (SAE) (Homo sapiens, UniProt Q9UBE0+Q9UBT2). Description: E1-E2 HTRF transthiolation assay with recombinantly purified SAE. The format is biochemical.

Chain of SUMO activating enzyme (SAE) (Q9UBT2 whole entry): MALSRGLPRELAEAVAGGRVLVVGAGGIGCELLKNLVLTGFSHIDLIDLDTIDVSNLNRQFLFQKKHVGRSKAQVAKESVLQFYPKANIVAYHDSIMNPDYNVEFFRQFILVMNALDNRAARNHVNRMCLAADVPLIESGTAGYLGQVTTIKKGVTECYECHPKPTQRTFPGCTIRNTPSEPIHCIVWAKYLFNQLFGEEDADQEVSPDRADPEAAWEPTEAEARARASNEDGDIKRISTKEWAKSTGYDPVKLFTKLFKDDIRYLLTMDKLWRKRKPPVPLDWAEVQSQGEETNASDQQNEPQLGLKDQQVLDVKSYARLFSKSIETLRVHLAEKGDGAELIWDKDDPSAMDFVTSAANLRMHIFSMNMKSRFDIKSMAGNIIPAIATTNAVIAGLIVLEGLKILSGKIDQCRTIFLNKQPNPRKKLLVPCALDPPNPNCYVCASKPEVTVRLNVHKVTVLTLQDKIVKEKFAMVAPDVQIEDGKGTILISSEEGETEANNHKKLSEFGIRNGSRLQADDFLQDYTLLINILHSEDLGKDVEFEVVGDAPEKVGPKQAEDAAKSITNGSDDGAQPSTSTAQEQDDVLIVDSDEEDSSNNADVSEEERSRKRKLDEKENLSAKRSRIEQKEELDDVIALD
Chain of SUMO activating enzyme (SAE) (Q9UBE0 whole entry): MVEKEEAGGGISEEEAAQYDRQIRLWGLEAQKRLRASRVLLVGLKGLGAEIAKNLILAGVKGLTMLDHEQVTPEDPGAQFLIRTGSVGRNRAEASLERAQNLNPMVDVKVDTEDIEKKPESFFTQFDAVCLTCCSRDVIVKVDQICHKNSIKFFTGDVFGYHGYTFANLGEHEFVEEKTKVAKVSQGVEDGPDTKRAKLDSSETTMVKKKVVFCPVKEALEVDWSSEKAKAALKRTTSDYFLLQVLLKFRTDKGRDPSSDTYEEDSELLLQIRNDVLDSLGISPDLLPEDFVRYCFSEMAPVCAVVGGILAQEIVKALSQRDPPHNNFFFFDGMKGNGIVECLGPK
Chain of SUMO activating enzyme (SAE) (P63279 2-158 partner): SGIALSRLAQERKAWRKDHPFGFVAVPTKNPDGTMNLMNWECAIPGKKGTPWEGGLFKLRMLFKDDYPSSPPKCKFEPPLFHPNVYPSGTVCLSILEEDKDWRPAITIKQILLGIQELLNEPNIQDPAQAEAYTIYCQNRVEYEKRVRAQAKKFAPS

The term pIC50 denotes −log10 of the IC50, conventionally taken in molar units. Turning to `Cc1sc(C(=O)c2cncnc2N[C@@H]2C[C@H](COS(N)(=O)=O)[C@@H](O)C2)cc1[C@@H]1NCCc2ccc(Cl)cc21` [TAK-981, ((1R,2S,4R)-4-((5-(4-((1R)-7-chloro-1,2,3,4-tetrahydroisoquinolin-1-yl)-5-methylthiophene-2-carbonyl)pyrimidin-4-yl)amino)-2-hydroxycyclopentyl)methyl sulfamate], the pIC50 is 9.22.
